Laboratory results: patent US11179412B2, “Methods of treating conditions involving elevated inflammatory response” (University of Pittsburgh—Of the Commonwealth System of …, priority 2017, dated 2021)
Structures can show the parent of a compound that is named as a salt.

These compounds were tested on STING activation (IFNβ release) in iBMDMs (assay: IFNβ release ELISA after STING ligand (or LPS) stimulation, iBMDMs). Conditions: not given.
Assay type: cell-based, mouse
In short: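 iBMDMs were stimulated with a STING ligand such as 3′3′-cGAMP, or with LPS. Secreted IFNβ in culture medium was measured by commercial mouse or human IFNβ ELISA.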

Row | Compound | fold increase in IFN-β release [fold]
1 | OCCOc1ccc(/C(=C(/CCCl)c2ccccc2)c2ccccc2)cc1 [Ospemifene] | 0.10

Same assay, conditions: iBMDMs; 3′3′-cGAMP 10 μg/ml, 16 hours; compound 10 μM

Row | Compound | fold increase in IFN-β release [fold]
2 | Cc1cnc(-c2ccccc2C(C)C)nc1NCc1ccc(-n2ccnn2)cc1 [ML323] | 0.43
3 | COc1ccc(-c2cnc3c(-c4cccc5ncccc45)cnn3c2)cc1 [ML347] | 1.95
4 | CC(C)C[C@H](NC(=O)CNC(=O)c1cc(Cl)ccc1Cl)B(O)O [MLN2238] | 4.76
5 | O=C(O)c1ccc(Nc2ncc3c(n2)-c2ccc(Cl)cc2C(c2c(F)cccc2F)=NC3)cc1 [MLN8054] | 0.77
6 | CCC(CC)(NC(=O)C(C)C)C(=O)N[C@@H](CCCN=C(N)N)C(=O)NC1(C(=O)NC(c2ccc(F)cc2)c2ccc(F)cc2)CCCC1 [MM-102] | 2.32
7 | S=C=Nc1cccc(NC(=S)NCCCCNC(=S)Nc2cccc(N=C=S)c2)c1 [MRS 2578] | 1.31
8 | COc1cc(-n2c(=S)[nH]c3ccccc3c2=O)c(Cl)cc1Cl [Mdivi-1] | 2.10
9 | CC12CC3CC(C)(C1)CC(N)(C3)C2 [Memantine HCl] | 2.60
10 | CN(Cc1cnc2nc(N)nc(N)c2n1)c1ccc(C(=O)N[C@@H](CCC(=O)O)C(=O)O)cc1 [Methotrexate] | 0.68
11 | CCN(CC)CCNC(=O)c1cc(Cl)c(N)cc1OC [MetoclopraMide HCl] | 2.14
12 | Nc1nc(CC(=O)Nc2ccc(CCNC[C@H](O)c3ccccc3)cc2)cs1 [Mirabegron] | 0.69
13 | O=C(NCCN1CCOCC1)c1ccc(Cl)cc1 [Moclobemide (Ro 111163), Moclobemide] | 1.88
14 | FC(F)(F)c1ccc(/C=C/c2nc(COc3ccc(CCCCn4ccnn4)cc3)co2)cc1 [Mubritinib (TAK 165), Mubritinib] | 0.56
15 | Cc1cc(C(N)=O)ccc1-n1c(CCC(=O)O)ccc1-c1ccc(-n2ccnc2)cc1 [N6022] | 0.75
16 | CCCCCCCCCCCCCCCCn1cc[n+](Cc2ccccc2)c1C.[I-] [NH125] | 0.11
17 | Cc1cc(OCc2nnc(SC3CCCC3)n2-c2cccnc2)ccc1-c1ccc(S(C)(=O)=O)cc1 [NMS-873] | 1.90
18 | CN1CCN(c2ccc(OC(F)(F)F)c(Nc3ncc4c(n3)-c3c(c(C(N)=O)nn3CCO)CC4)c2)CC1 [NMS-P937 (NMS1286937)] | 0.73
19 | CC(C)(Cc1ccc2ccccc2c1)NC[C@@H](O)COc1cccc(Cl)c1C#N [NPS-2143] | 0.99
20 | Cc1ccc(S(=O)(=O)c2ccc([N+](=O)[O-])o2)cc1 [NSC697923] | 0.51
21 | CCN(CC)CCCC(C)Nc1nc(C)cc(Nc2ccc3nc(C)cc(N)c3c2)n1 (centres unmarked) [NSC 23766] | 1.30
22 | C/C(=N\NC(=S)N1CCC1)c1ccccn1 [NSC 319726] | 2.43
23 | CCCC(C)NC(=O)c1ccc(Cl)c(Cl)c1 (centres unmarked) [NSC 405020] | 1.24
24 | Nc1ncnc2c1c(-c1cccc(OCc3ccccc3)c1)cn2C1CC(CN2CCCC2)C1 (centres unmarked) [NVP-ADW742] | 0.61

Row | Compound | fold increase in IFN-β release [fold]
25 | COc1ccccc1N1CCN(CC(O)COc2cccc3ccccc23)CC1 (centres unmarked) [Naftopidil] | 2.46
26 | O=C1CC[C@@]2(O)[C@H]3Cc4ccc(O)c5c4[C@@]2(CCN3CC2CC2)[C@H]1O5 [Naltrexone HCl] | 3.12
27 | COc1ccc2cc([C@H](C)C(=O)O)ccc2c1 [Naproxen] | 1.46
28 | OC(CNCC(O)C1CCc2cc(F)ccc2O1)C1CCc2cc(F)ccc2O1 (centres unmarked) [Nebivolol] | 0.75
29 | CN1C(=O)C(Cc2c[nH]c3ccccc23)NC1=S (centres unmarked) [Necrostatin-1] | 1.60
30 | Cc1cn(-c2cc(NC(=O)c3ccc(C)c(Nc4nccc(-c5cccnc5)n4)c3)cc(C(F)(F)F)c2)cn1 [Nilotinib (AMN-107), Nilotinib] | 0.77
31 | COC(=O)C1=C(C#N)NC(C)=C(C(=O)OC(C)C)C1c1cccc([N+](=O)[O-])c1 (centres unmarked) [Nilvadipine] | 1.79
32 | C[C@]1(O)C[C@@H](c2nc(-c3ccc4ccc(-c5ccccc5)nc4c3)c3c(N)nccn32)C1 [OSI-906 (Linsitinib), Linsitinib] | 0.66
33 | NCC(=O)Nc1ccc(-n2nc(C(F)(F)F)cc2-c2ccc3c(ccc4ccccc43)c2)cc1 [OSU-03012 (AR-12)] | 0.31
34 | Cc1sc2c(c1C)C(c1ccc(Cl)cc1)=N[C@@H](CC(=O)Nc1ccc(O)cc1)c1nnc(C)n1-2 [OTX015] | 0.43
35 | CC(C)(F)C[C@H](N[C@@H](c1ccc(-c2ccc(S(C)(=O)=O)cc2)cc1)C(F)(F)F)C(=O)NC1(C#N)CC1 [Odanacatib (MK-0822), Odanacatib] | 0.90
36 | CC[C@@H]1/C=C/C=C/C[C@H](C)[C@H](O)[C@](C)(O)C(=O)[C@H](C)[C@@H](O)[C@H](C)C(=O)[C@H](C)[C@@H](O)[C@H](C)/C=C/C(=O)O[C@H]2[C@@H](C)[C@@H](CC1)O[C@@]1(CC[C@@H](C)[C@@H](C[C@H](C)O)O1)[C@@H]2C [Oligomycin A] | 2.49
37 | CCc1c(C(=O)NCCc2ccc(N3CCCCC3)cc2)[nH]c2ccc(Cl)cc12 [Org 27569] | 1.74
38 | C[C@@H]1O[C@@H](O[C@H]2C[C@@H](O)[C@]3(CO)[C@H]4[C@H](O)C[C@]5(C)[C@@H](C6=CC(=O)OC6)CC[C@]5(O)[C@@H]4CC[C@]3(O)C2)[C@H](O)[C@H](O)[C@H]1O [Ouabain] | 1.08
39 | NC(=O)N1c2ccccc2CC(=O)c2ccccc21 [Oxcarbazepine] | 5.22
40 | Cc1cc(C(C)(C)C)c(O)c(C)c1CC1=NCCN1 [Oxymetazoline HCl] | 1.16
41 | O=C(O)/C=C/c1ccc(Cn2ccnc2)cc1 [Ozagrel] | 0.11
42 | CC(=O)c1cc([N+](=O)[O-])c(Sc2ccc(F)cc2F)s1 [P22077] | 0.35
43 | C=CCc1cccc(/C=N/NC(=O)CN2CCN(Cc3ccccc3)CC2)c1O [PAC-1] | 0.17
44 | O=C(NOCC1CC1)c1ccc(F)c(F)c1Nc1ccc(I)cc1Cl [PD184352 (CI-1040)] | 0.94
45 | O=C(NOC[C@H](O)CO)c1ccc(F)c(F)c1Nc1ccc(I)cc1F [PD0325901] | 0.39
46 | O=C(O)/C(S)=C/c1c[nH]c2ccc(F)cc12 [PD 151746] | 1.92

Same assay, conditions: iBMDMs; 3′3′-cGAMP 10 μg/ml, 16 hours; compound 10 μM; HCl

Row | Compound | fold increase in IFN-β release [fold]
47 | O=C(O)/C=C/c1ccc(Cn2ccnc2)cc1 [Ozagrel HCl] | 2.13
